Source: patent US20140221656A1, “CRYSTALLINE SOLVATES OF 6-(PIPERIDIN-4-YLOXY)-2H-ISOQUINOLIN-1-ONE HYDROCHLORIDE” (SANOFI, priority 2011, published 2014)
“Also recorded” adds a separate entry of the source. Where a name gives a salt, the structure may show the parent alone. Blank lines part the entries; values can stand above or below the compound they belong to.

What was measured:
Type in all cases: physicochemical
[1] = Thermogravimetric analysis (TGA)
Experimental: On heating the dihydrate in a dry environment, a significant weight loss starts already at slightly elevated temperature and ends at about 110° C.
In this temperature range, transformation to phase 3 was observed as determined by XRPD.
The thermogravimetric analyses were performed with a METTLER TGA851e (module TGA/SDTA851e/SF1100/042). 100 μl Al crucibles sealed with lid were used. The sample changer punches a pinhole into the lid immediately before the start of the measurement. The oven cell is purged with a nitrogen gas flow of about 50 mL/min. The measurements typically start with a hold time of about 25 min at 25° C., followed by heating of the sample with a rate of 10°/min. Temperature and weight loss were checked by a calcium oxalate hydrate reference sample.

[2] = Dynamic vapor sorption (DVS) water vapor sorption and desorption isotherms; conditions: DVS 25° C.; for hygroscopicity / water content as a function of relative humidity: FIG. 13 and 14
Experimental: Moreover, the dihydrate may also be characterized by its DVS (dynamic vapor sorption) water vapor sorption and desorption isotherms measured at 25° C. as shown in FIG. 3. Before starting the sorption cycle the dihydrate probe is treated with dry nitrogen gas resulting in a transformation into phase 2 as shown by humidity resolved XRPD. […] In the sorption cycle the water content of the probe quickly increases when phase 2 is exposed to relative humidities between 1 and 20% and remains almost constant between 20 and 95%. In the desorption cycle the water content remains almost constant when the dihydrate is exposed to relative humidities between 95% and 20%. A weight loss starts below 20% relative humidity and becomes strong below 10%, especially below 5%. The change in mass at low relative humidity is completely reversible and when the humidity increases again, the rehydration proceeds rapidly with small samples. However, for bulk samples rehydration of over-dried samples can take considerably longer and rehydration may require several days. Almost identical water sorption and desorption isotherms are observed at 40° C.
With decreasing humidity the dihydrate converts back at low humidity (below about 10% r.h.) into phase 2 (cycle 1, desorption). Phase 2 then converts into the dihydrate with increasing humidity and along the same isotherm it converts back with decreasing humidity into polymorph 2 (cycle 2, see also FIG. 3)
Moisture sorption/desorption isotherms were recorded on a DVS-1 from Surface Measurement Systems. […] Typical total measurement times for both cycles are about 20-30 hours.

[3] = Humidity-controlled XRPD in a humidity chamber; conditions: for time until transformation into the dihydrate at 95% relative humidity: held at 95% r.h., hydrochloride
Experimental: When humidity-controlled XRPD was performed at 25 and 40° C., widely identical results were obtained.
Exposure to elevated humidity causes transformation to the dihydrate as determined with humidity-controlled XRPD performed at 25° C. […] Phase 1 transformed into the dihydrate after about 15 min at 95%, which in turn changed to phase 2 after about 40 min at 2% r.h.
Exposure to elevated humidity causes transformation to the dihydrate as determined by humidity-controlled XRPD at 25° C. […] As a result phase 3 transformed into the hydrate after about 30 min at 95%, which in turn changed to phase 2 after about 30 min at 2% r.h.
Exposure to elevated humidity causes transformation to the dihydrate as determined by humidity-controlled XRPD. […] As a result phase 4 transformed into the dihydrate after about 15 min at 95%, which in turn changed to phase 2 after about 20 min at 2% r.h.
(§1) All X-ray powder diffraction was performed with Stoe Stadi-P transmission diffractometers using CuKα1 radiation (Lambda is 1.54060 Angström). For room temperature powder diffraction, linear position sensitive detectors were used; while for temperature-resolved XRPD image plate position sensitive detectors (IP-PSDs) were used. Unless stated otherwise, X-ray powder diffraction was performed at room temperature. Dry samples were investigated in a flat preparation whereas suspensions were investigated in quartz glass capillaries. The measured data were evaluated and plotted with the Software WinXPOW V2.12.

[4] = Storage under usual storage conditions (25° C./65% relative humidity)
Experimental: Moreover, the corresponding amorphous material is hygroscopic and the water content varies much stronger with the relative humidity compared to the dihydrate. This water uptake and variability in water content makes precise dosing during drug product manufacturing difficult. In contrast, the dihydrate has been proven to be stable for more than two years under usual storage conditions (no detectable decomposition at 25° C./65% relative humidity). Accordingly, the crystalline dihydrate is therefore the preferred solid form for drug product manufacturing.

[5] = Temperature-resolved XRPD
Experimental: Based on these findings the dihydrate is stable below 90° C. and thus also at room temperature. Therefore, in comparison to the other described anhydrous polymorphs, the dihydrate is particularly suitable when a high stability is desired. It is the only one that can be stored at relative humidities between 20 and 95% in different environments below 90° C., which are usual storage conditions, without the risk of transformation into another described crystalline phase. Even if exposed to a very dry environment, a possible water loss is reversible and the missing water is gained back once the compound is back in an environment having usual humidity conditions. Therefore, the dihydrate is in particular suitable for the preparation of medicaments and pharmaceutical compositions with improved stability.
as §1, with “Dry samples were investigated in a flat preparation whereas suspensions were investigated in quartz glass capillaries.” left out

[6] = Maturation experiments (slurry conversion), relative stability of polymorphs and hydrate; conditions: for relative thermodynamic stability among the phases: suspensions of phase mixtures in dry organic solvents, 0 to 40° C., hydrochloride
Experimental: By maturation experiments (slurry conversion) at the given temperature the relative stability of the polymorphs of compound (I) and the hydrate was investigated.
The following maturation experiment was performed by stirring the suspension under the specified conditions, starting from the dihydrate. The sample was investigated by XRPD in suspension, after vacuum filtration as well as after drying over night at 40° C. in vacuum (<50 mbar). The isolated material was also investigated by DSC and TGA.
(a) Maturation of 0.210 g dihydrate of compound (I) in 0.4 mL of water at 20° C. for 35 days. Similar, maturation of the dihydrate was done in water/methanol (vol/vol 1:1) and in water/ethanol (vol/vol 1:1).
The following maturation experiments were performed by stirring the suspension under the specified conditions and isolating the solid by vacuum filtration, starting from dihydrate of compound (I). The sample was investigated by XRPD in suspension, after vacuum filtration as well as after drying. The isolated material was also investigated by DSC and TGA.
(b) Maturation of 0.203 g of dihydrate of compound (I) in 1.2 mL of methanol at 20° C. for 35 days.
(c) Maturation was also done as in (b) by using ethanol, 1-propanol or 2-propanol.
(d) Maturation of […] of dihydrate of compound (I) in 2.0 mL of 2-butanol at 20° C. for 35 days.
The following maturation experiments of suspensions of phase mixtures of the dihydrate of compound (I) and phases consisting of polymorphs 1, 3 and 4 were performed at 0, 20 and 40° C. The product was isolated by vacuum filtration and analyzed after drying.
(e) Maturation of a mixture of 0.3 mg phase 1, 23.9 mg phase 3, 29.9 mg phase 4 and 27.9 mg of the dihydrate in 0.7 mL 2-propanol at 0° C. for 2 weeks.
(f) Maturation of a mixture of 0.3 mg phase 1, 27.2 mg phase 3, 18.1 mg phase 4 and 29.6 mg of the dihydrate in 2.0 mL 2-butanol at 0° C. for 2 weeks.
(g) Similar experiments as in e) and f) were done with corresponding mixtures of phase 1, phase 3, phase 4 and the dihydrate in 2-propanol and 2-butanol at 20° C. and at 40° C., respectively.

[7] = Drying of the dihydrate, retention of crystal structure; conditions: dried dihydrate
Description: In a further embodiment of the hydrate the water content is 11.4% (w/w). in a further embodiment the hydrate contains 2.0 molecules water per molecule (I). Although the hydrate phase typically contains about 10-12.5% water it can also occur with lower water content. The crystal structure of the hydrate remains even if the dihydrate is dried and the remaining water content is down to about 3%. Water uptake is reversible if humidity in the environment is raised again. The water content in the isolated product depends on the drying conditions used during work up of the hydrate after crystallisation.

[8] = Stability of the solvate outside the mother liquor; conditions: in the presence of humidity starts to transform to the hydrate
Description: Thus, a further aspect of the present invention relates to the use of the methyl acetate solvate of compound (I) for the production of the hydrate, for example by subjecting it to conditions, such as an elevated temperature and/or humidity which facilitate the loss of methyl acetate and attracting water.

[9] = Storage at 20° C. and 75% relative humidity
Experimental: Also storage of phase 1 at 20° C. and 75% relative humidity caused complete conversion to the dihydrate within 3 weeks. The rate of conversion correlates with the relative humidity.
(§2) Also storage of phase 3 at 20° C. and 75% relative humidity caused complete conversion to the dihydrate within 3 weeks. The rate of conversion correlates with the relative humidity. When suspended in water, complete transformation into the dihydrate was observed almost immediately (<10 min).
Also storage of phase 4 at 20° C. and 75% relative humidity caused complete conversion to the dihydrate within 3 weeks. The rate of conversion apparently correlates with the relative humidity.

[10] = Suspension in water, transformation into the dihydrate
Experimental: as §2

stability of the solvate (in words) ([1]; from TGA / temperature-resolved XRPD): relatively stable
TGA weight loss ([1]; mainly in a temperature range from 80 to 120° C.): 16.6%
Structure (SMILES): O=c1[nH]ccc2cc(OC3CCNCC3)ccc12 [1,4-dioxane solvate, 6-(Piperidin-4-yloxy)-2H-isoquinolin-1-one hydrochloride×0.5 1,4-dioxane solvate]

hygroscopicity / water content as a function of relative humidity ([2]; hydrochloride): hygroscopic
Structure (SMILES): O=c1[nH]ccc2cc(OC3CCNCC3)ccc12 [amorphous material, 6-(Piperidin-4-yloxy)-2H-isoquinolin-1-one hydrochloride]

relative humidity at which the hydrate reversibly transforms into phase 2 ([3]; humidity chamber XRPD, r.h. cycled between 2% and 95%): 2 % r.h.
time until the dihydrate changed to phase 2 at 2% r.h. ([3]; humidity-controlled XRPD, held at 2% r.h., hydrochloride dihydrate): about 30 min
hygroscopicity / water content as a function of relative humidity ([2]; hydrochloride dihydrate): maintains a quite constant water content
relative humidity below which the dihydrate converts into phase 2 ([2]; cycle 1, desorption): below 10 % r.h.
relative humidity below which weight loss starts ([2]; desorption cycle): below 20%
time proven stable under usual storage conditions (no detectable decomposition) [4]: more than two
temperature below which the form is stable ([5]; based on temperature-resolved XRPD findings): below 90 °C
temperature at which transformation to phase 3 starts ([5]; heating, accompanied by loss of water): about 90 °C
TGA weight loss (water) on heating ([1]; heating in a dry environment, ends at about 110° C.): 10.8 mass-%
solid phase after maturation in 2-butanol ([6]; 2-butanol, 20° C., 35 days, after drying): Polymorph 4 was obtained
solid phase after maturation in alcohols ([6]; methanol, ethanol, 1-propanol or 2-propanol, 20° C., 35 days): polymorph 3 was obtained
solid phase after maturation in aqueous media ([6]; water, water/methanol 1:1, water/ethanol 1:1, 20° C., 35 days): remained as dihydrate
remaining water content down to which the hydrate crystal structure remains on drying [7]: about 3%
Structure (SMILES): O=c1[nH]ccc2cc(OC3CCNCC3)ccc12 [dihydrate, 6-(Piperidin-4-yloxy)-2H-isoquinolin-1-one hydrochloride dihydrate]

stability outside the mother liquor (in words) [8]: only moderately stable
Structure (SMILES): O=c1[nH]ccc2cc(OC3CCNCC3)ccc12 [methyl acetate solvate, 6-(Piperidin-4-yloxy)-2H-isoquinolin-1-one hydrochloride]

time until transformation into the dihydrate at 95% relative humidity ([3]; humidity-controlled XRPD): about 15 min
time to complete conversion to the dihydrate on storage [9]: ≤ 3 weeks
relative thermodynamic stability among the phases [6]: only a metastable polymorph
Structure (SMILES): O=c1[nH]ccc2cc(OC3CCNCC3)ccc12 [phase 1, 6-(Piperidin-4-yloxy)-2H-isoquinolin-1-one hydrochloride]

time until transformation into the dihydrate at 95% relative humidity ([3]; humidity-controlled XRPD): about 30 min
relative humidity above which phase changes into the dihydrate ([2]; cycle 1, sorption): above 80%
time to complete conversion to the dihydrate on storage [9]: ≤ 3 weeks
time to complete transformation into the dihydrate when suspended in water [10]: < 10 min
Structure (SMILES): O=c1[nH]ccc2cc(OC3CCNCC3)ccc12 [phase 3, 6-(Piperidin-4-yloxy)-2H-isoquinolin-1-one hydrochloride]
relative thermodynamic stability among the phases [6]: thermodynamically most stable anhydrous form; also recorded: most stable anhydrous phase

time until transformation into the dihydrate at 95% relative humidity ([3]; humidity-controlled XRPD): about 15 min
time to complete conversion to the dihydrate on storage [9]: ≤ 3 weeks
relative thermodynamic stability among the phases [6]: only a metastable one
Structure (SMILES): O=c1[nH]ccc2cc(OC3CCNCC3)ccc12 [phase 4, 6-(Piperidin-4-yloxy)-2H-isoquinolin-1-one hydrochloride]
